{"source": "ChEMBL document CHEMBL5726111", "about": "“Substituted pyridinone compounds as MEK inhibitors” (2017)", "target": "Dual specificity mitogen-activated protein kinase kinase 1 (Homo sapiens, UniProt Q02750)", "sequence (Q02750 whole entry)": "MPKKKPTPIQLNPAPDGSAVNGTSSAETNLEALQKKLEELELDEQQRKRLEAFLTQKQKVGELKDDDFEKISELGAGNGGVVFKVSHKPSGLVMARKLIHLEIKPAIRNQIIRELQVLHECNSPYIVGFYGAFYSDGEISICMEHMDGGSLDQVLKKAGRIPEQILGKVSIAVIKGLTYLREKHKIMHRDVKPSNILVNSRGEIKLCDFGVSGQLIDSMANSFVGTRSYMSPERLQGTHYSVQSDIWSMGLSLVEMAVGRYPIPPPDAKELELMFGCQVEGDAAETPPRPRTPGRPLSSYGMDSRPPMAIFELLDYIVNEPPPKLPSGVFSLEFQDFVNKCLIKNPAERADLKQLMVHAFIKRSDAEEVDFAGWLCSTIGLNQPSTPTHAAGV", "assay": "LANCE Ultra Assay: The LANCE Ultra assay kit was purchased from PerkinElmer. The ULight-MBP peptide, Europium labeled Antibody and LANCE Detection buffer were purchased from PerkinElmer. The APT and dimethylsulfoxide were purchased from Sigma-Aldrich. The 5× Kinase buffer were purchased from Invitrogen. […] A Mek1 kinase assay (LANCE, PerkinElmer) was developed for supporting compound profiling and lead optimization. […] Then the phosphorylated Erk1 was able to phosphorylate ULight-MBP peptide (PerkinElmer). The phosphorylated peptide was detected by Europium-anti-phospho-MBP (PerkinElmer). […] After quenching the reaction with […], 2 nM Europium-anti-phospho-MBP was added to the reaction mixture and incubated for 60 min, followed by a detection using EnVision Multilabel Plate Reader (PerkinElmer).", "data": [{"smiles": "Cn1c(Nc2ccc(I)cc2F)c(C(=O)NOCCO)c2c(c1=O)CC(C)(C)C2", "values": [{"measurement": "IC50", "value": "< 500", "unit": "nM"}]}]}
